From patent US20220106304A1, “Transcription Factor BRN2 Inhibitory Compounds as Therapeutics and Methods for Their Use” (The University of British Columbia, priority 2018, published 2022)

Legend:
BRN2 = target: T1, BRN2 (Homo sapiens, UniProt P20265); test: cell-based; conditions: negative = activation; for inhibition at 10 µM: read-out: % BRN2 Inhibition (10 μM), 10 μM compound, 24 hours, 42D^ENZR cells stably expressing BRN2-luciferase reporter; for inhibition at 30 µM: read-out: % BRN2 Inhibition (30 μM), 30 μM compound, 24 hours, 42D^ENZR cells stably expressing BRN2-luciferase reporter
T1 sequence (P20265 1-443): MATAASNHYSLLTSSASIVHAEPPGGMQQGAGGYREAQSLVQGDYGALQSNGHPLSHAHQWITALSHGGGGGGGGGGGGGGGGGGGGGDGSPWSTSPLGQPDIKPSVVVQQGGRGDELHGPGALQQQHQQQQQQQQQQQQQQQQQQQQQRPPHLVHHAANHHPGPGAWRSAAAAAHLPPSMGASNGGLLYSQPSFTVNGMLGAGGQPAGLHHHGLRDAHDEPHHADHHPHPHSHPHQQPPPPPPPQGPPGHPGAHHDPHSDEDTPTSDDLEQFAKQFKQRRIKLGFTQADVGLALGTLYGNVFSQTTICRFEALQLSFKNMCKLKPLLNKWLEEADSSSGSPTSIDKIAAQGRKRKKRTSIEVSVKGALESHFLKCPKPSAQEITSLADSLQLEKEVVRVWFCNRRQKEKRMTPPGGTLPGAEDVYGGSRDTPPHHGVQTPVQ

[1] = system: 42D^ENZR cells vs 16D^CRPC cells; test: Cell proliferation specificity, 42D^ENZR cells vs 16D^CRPC cells; format: cell-based; conditions: 42D cells express BRN2, 16D cells do not; some also LNCaP; result in words
Protocol: Plate 42DENZR (˜7000 cells per well) and 16D^CRPC (˜5000 cells per well) cells in 96 well plate with a volume of 100 μL per well. • 2. Next day 1 mL aliquots of media are combined with 3× the desired concentration of compounds. The aliquots are vortexed and 50 μL of each 3× concentration is added to the 100 μL of media in each well to give the ix desired concentration.
The following are the desired concentrations:
0, 10 nM, 100 nM, 500 nM, 1 μM, 2.5 μM, 5 μM, 10 μM, 15 μM, […], 30 μM. • 3. Approximately 72 hours later, 17 μL of 10% Glutaraldehyde is added to each well and plates are placed on a shaker for 20-30 minutes. • 4. Media is washed off the fixed cells by slow submersion in a container of water. Then the water is removed by tapping the plate upside down. • 5. 75 μL of Crystal Violet™ solution is added into the 96 well plates and placed on a shaker for ˜30 minutes. • 6. Media is washed off the fixed cells by repeated slow submersion in a container of water and the plates are allowed to dry over-night. • 7. Next day, 75 μL of Sorensen Solution is accurately pipetted into each well. The plates placed on a shaker for ˜30 minutes. • 8. Absorbance is measured in the plate at 590 nm.
Compounds that Show Specificity Towards 42D^ENZR Cells Vs 16D^CRPC Cells Progress to Step 4.
(§1) Where data is not available “na” is inserted.

[2] = Liver microsome metabolic stability, MLM; format: in vitro ADME; conditions: MLM (single value or second of two), 1 μM compound, 0.25 mg/mL protein; for Met Stab % (60 mins HLM/MLM): percent remaining at 60 min, 1 mM NADPH; for half-life at 1 µM: mouse, liver microsomes, pH 7.4, read-out: T1/2 in (mins HLM/MLM)
Protocol: (§2) Potassium phosphate buffer (Kphos) was prepared by adding 0.647 g potassium phosphate monobasic (KH2PO4) and 3.527 g potassium phosphate dibasic ([…]) to 400 mL of Milli-Q water. pH of the buffer was adjusted to 7.4 and volume was made up to 500 mL.
(§3) Microsomes (20 mg/mL) were diluted in KH2PO4 buffer to prepare a concentration of 0.357 mg/mL.
(§4) Stock solutions of BRN2 inhibitors were prepared in DMSO at a concentration of 1 mM
(§5) A stock solution of 3.33 mM NADPH (3.33×) was prepared by dissolving appropriate amount of NADPH in KH2PO4 buffer.
(§6) Total Incubation volume: 100 μL
(§7) Compound concentration: 1 μM
(§8) Protein Concentration: 0.25 mg/mL
(§9) An 1120 μL aliquot of Kphos buffer (50 mM, pH 7.4) containing liver microsomes (0.357 mg/mL) were added to individual 2 mL tubes (final concentration 0.25 mg/mL). Test compounds (1 mM) and positive controls were directly spiked into respective tubes to prepare a concentration of 1.428 μM (final concentration 1 μM). From the above mix, 70 μL was added to individual wells of 96 well reaction plates and pre-incubated in a 37° C. water bath for 5 min. All the reactions were initiated by adding 30 μL of 3.33 mM NADPH (final concentration 1 mM). Reactions without NADPH and buffer controls (minus NADPH) at 0 min and 60 min were also incubated to rule out non-NADPH metabolism or chemical instability in the incubation buffer. All reactions were terminated using 100 μL of ice-cold acetonitrile containing internal standard at 0, 5, 15, 30 and 60 min. The plates were centrifuged at 4000 RPM for 15 min and 100 μL aliquots were submitted for analysis by LC-MS/MS.
(§10) Samples were monitored for parent compounds disappearance in MRM mode using LC-MS/MS.
(§11) The percent remaining of test compounds and positive control in each sample was determined by considering peak area ratio in the 0 minute sample as 100%. The Half-life of compounds in microsomes is calculated by formula:
(§12) Half-life (t½) (min)=0.693/k, where k is gradient of line determined from plot of peak area ratio (compound peak area/internal standard peak area) against time.
(§13) In vitro intrinsic clearance (CL'int) (units in mL/min/kg) was calculated using the formula.
(§14) [formula] • For liver microsomes, scaling factor used was 45 mg microsomal protein per gm liver. • Indicates liver weight (gm) which varies species wise. For mice the liver weights are 90 gm.
as §1

[3] = Liver microsome metabolic stability, HLM; format: in vitro ADME; conditions: HLM (first of two values), 1 μM compound, 0.25 mg/mL protein; for Met Stab % (60 mins HLM/MLM): percent remaining at 60 min, 1 mM NADPH; for half-life at 1 µM: human, liver microsomes, pH 7.4, read-out: T1/2 in (mins HLM/MLM)
Protocol: as §2, §3, §4, §5, §6, §7, §8, §9, §10, §11, §12, §13, §14, §1

Row | Structure (SMILES) | inhibition at 10 µM (BRN2) [%] | inhibition at 30 µM (BRN2) [%] | specificity [1] | Met Stab % (60 mins HLM/MLM) [2] | half-life at 1 µM [2] [min] | Met Stab % (60 mins HLM/MLM) [3] | half-life at 1 µM [3] [min]
1 | Clc1ccc2cc(-c3csc(-c4ccco4)n3)oc2c1 [VPC-18-66, 4-(6-chlorobenzofuran-2-yl)-2-(furan-2-yl)thiazole] | 82 | 94 | VPC-18-66 (specific- no effect on LNCaP and 16D) | 31% | 42 |  | 
2 | Clc1ccc2cc(-c3csc(-c4ccc[nH]4)n3)oc2c1 [VPC-18-94, 4-(6-chlorobenzofuran-2-yl)-2-(1H-pyrrol-2-yl)thiazole] | 79.6 | 86.9 | VPC-18-94 (specific no effect on LNCaP and 16D) | 21% | 27 |  | 
3 | Clc1ccc2cc(-c3nccc(-c4ccco4)n3)oc2c1 [VPC-18-141, 2-(6-chlorobenzofuran-2-yl)-4-(furan-2-yl)pyrimidine] |  |  | VPC-18- 141 (specific) | 3% | 13 |  | 
4 | c1ccc2oc(-c3csc(-c4ccoc4)n3)cc2c1 [VPC-18-76, 4-(benzofuran-2-yl)-2-(furan-3-yl)thiazole] | 96.3 | 94.9 | VPC-18-76 (specific) | 1% | 9 |  | 
5 | c1ccc(-n2cc(-c3nc4ccccc4o3)cn2)cc1 [VPC-18-18] | 82.8 | 87 | VPC-18-18 (specific- affects 42D but not 16D) |  |  |  | 
6 | c1ccc(-c2nc(-c3cc4ccccc4o3)cs2)cc1 [VPC-18-33, 4-(Benzofuran-2-yl)-2-phenylthiazole] | 22.4 | 57.2 |  | 1% | 10 | 30% | 36
7 | Clc1ccc2cc(-c3nccc(-c4ccc[nH]4)n3)oc2c1 [VPC-18-133, 2-(6-chlorobenzofuran-2-yl)-4-(1H-pyrrol-2-yl)pyrimidine] |  |  | VPC-18- 133 (specific) | 1% | 8 |  | 
8 | Cc1c(-c2csc(-c3ccccn3)n2)oc2ccccc12 [VPC-18-13] | 98.3 | 99.9 | VPC-18-13 (specific) |  |  |  | 
9 | c1ccc2c(c1)CCC2c1cnn(-c2nc3ccccc3s2)c1 (stereo not drawn) [VPC-7-43] | 2 | 41 |  | 5% | 14 | 20% | 27
10 | Clc1ccc2cc(-c3coc(-c4ccc[nH]4)n3)oc2c1 [VPC-18-127, 4-(6-chlorobenzofuran-2-yl)-2-(1H-pyrrol-2-yl)oxazole] |  |  | VPC-18- 127 (specific) | 16% | 22 |  | 
11 | Cn1cccc1-c1nc(-c2cc3ccc(Cl)cc3o2)cs1 [VPC-18-139, 4-(6-chlorobenzofuran-2-yl)-2-(1-methyl-1H-pyrrol-2-yl)thiazole] |  |  | VPC-18- 139 (specific) | 23% | 30 |  | 
12 | c1coc(-c2nc(-c3cc4ccccc4o3)cs2)c1 [VPC-18-14] | 95.9 | 96.6 | VPC-18-14 (specific) |  |  |  | 
13 | Cn1c(-c2ccc(-c3ccccc3)o2)nc2ccccc21 [VPC-18] | 97.6 | 99.4 | VPC-18 (42D not 16D) |  |  |  | 
14 | Cn1c(-c2csc(-c3ccccc3F)n2)nc2ccc(F)cc21 [VPC-18-45, 4-(6-Fluoro-1-methyl-1H-benzo[d]imidazol-2-yl)-2-(2-fluorophenyl)thiazole] | 7.53 | 47.2 |  | 22% | 32 | 35% | 42
15 | Cn1c(-c2ccc(-c3ccc(F)cc3F)o2)nc2ccccc21 [VPC-18-41, 2-(5-(2,4-Difluorophenyl)furan-2-yl)-1-methyl-1H-benzo[d]imidazole] | 57.5 | 91.1 |  | 0/0% |  | 0/0% | 
16 | Cn1c(-c2ccc(-c3ccccc3F)o2)nc2c(F)cccc21 [VPC-18-31, 4-Fluoro-2-(5-(2-fluorophenyl)furan-2-yl)-1-methyl-1H-benzo[d]imidazole] | 67.9 | 77.8 |  | 0% |  | 17% | 2
17 | COc1ccccc1-c1ccc(-c2nc3ccccc3n2C)o1 [VPC-18-35, 2-(5-(2-Methoxyphenyl)furan-2-yl)-1-methyl-1H-benzo[d]imidazole] | 51.6 | 95.8 |  | 0% | 5 | 4% | 13
18 | Cn1c(-c2ccc(-c3ccccc3)o2)nc2ccc(Cl)cc21 [VPC-18-42, 6-Chloro-1-methyl-2-(5-phenylfuran-2-yl)-1H-benzo[d]imidazole] | 77.3 | 76.8 |  | 1% | 11 | 15% | 23
19 | FC(F)(F)c1ccc2cc(-c3nccc(-c4ccc[nH]4)n3)oc2c1 [VPC-18-140, 4-(1H-pyrrol-2-yl)-2-(6-(trifluoromethyl)benzofuran-2-yl)pyrimidine] |  |  | VPC-18- 140 (specific) | 2% | 10 |  | 
20 | O=[N+]([O-])c1ccc2nc(-c3ccc(-c4ccccc4F)o3)[nH]c2c1 [VPC-18-32, 2-(5-(2-Fluorophenyl)furan-2-yl)-6-nitro-1H-benzo[d]imidazole] | 83.7 | 95.5 |  | 4% | 12 | 20% | 26
